According to US7855177B1, “Methods and kits for preventing hypoglycemia” (Cebix Inc., priority 2009, dated 2010):

Experiments:
[1] = S.C.; cited from earlier work
[2] = tested on: type 1 diabetes patients with peripheral neuropathy; experiment: Phase II trial: adverse events; conditions: for Total treatment emergent AEs of any severity, number / Total treatment emergent AEs possibly related to study drug, number: all SOCs; for Total Adverse Events, Moderate / Total Adverse Events, Severe: ITT data set, number of treatment emergent AEs
Experimental: The safety measurements comprised collection of AEs, spontaneously reported by the patient or recorded by the investigator at each clinical visit. Review of laboratory investigations, vital signs, and physical examinations was performed at the S/B visit, visit 2, and at end of study (visit 4). ECG was performed at the S/B visit and at visit 4.
An AE was classified as “unexpected event” (i.e., if not specifically listed in the Investigator's Brochure) in terms of nature, severity, or frequency. All AEs, including intercurrent illnesses and increased severity or frequency of sign/symptoms of a concomitant disease was reported and documented as described below. AEs were documented on an “Adverse Event/Serious Adverse Event” page of the CRF and in the patient's medical records. Any AE occurring at any time after the end of the study, considered to be caused by the study medication—and therefore a possible adverse drug reaction—was reported to the sponsor.
The period of observation for AEs extended from the time the patient started on trial medication until end of the study. AEs were divided into the categories “serious” and “non-serious”. This determined the procedure used to report/document the AE.
Regardless of the classification of an AE as serious or non-serious (see above), its severity was assessed as mild, moderate, or severe, according to medical criteria alone:
Descriptive statistics were used for safety variables. For lab parameters summary statistics were presented as change from baseline and between doses. The changes from baseline were calculated and compared with normal ranges. The safety analysis set included all patients who obtained at least one dose of the investigational drug. AEs were coded according to the MedDRA dictionary. The frequencies of AEs are tabulated by body system and included/preferred term.

[3] = High-dose C-peptide, SOC Blood and lymphatic system disorder
[4] = High-dose C-peptide, SOC Eye disorder
[5] = High-dose C-peptide, SOC Gastro-intestinal Disorders
[6] = High-dose C-peptide, SOC General disorders and administration site conditions
[7] = High-dose C-peptide, SOC Infections and infestations
[8] = High-dose C-peptide, SOC Injury poisoning, procedural complications
[9] = High-dose C-peptide, SOC Investigations
[10] = High-dose C-peptide, SOC Metabolism and nutritional disorders
[11] = High-dose C-peptide, SOC Musculoskeletal and connective tissue disorder
[12] = High-dose C-peptide, SOC Nervous system disorders
[13] = High-dose C-peptide, SOC Reproductive system and breast disorders
[14] = High-dose C-peptide, SOC Respiratory, thoracic, and mediastinal disorders
[15] = High-dose C-peptide, SOC Skin and subcutaneous tissue disorders
[16] = High-dose C-peptide, SOC Surgical and Medical
[17] = High-dose C-peptide, SOC Vascular disorders
[18] = Low-dose C-peptide, SOC Cardiac disorder
[19] = Low-dose C-peptide, SOC Eye disorder
[20] = Low-dose C-peptide, SOC Gastro-intestinal Disorders
[21] = Low-dose C-peptide, SOC Immune system disorders
[22] = Low-dose C-peptide, SOC Infections and infestations
[23] = Low-dose C-peptide, SOC Injury poisoning, procedural complications
[24] = Low-dose C-peptide, SOC Investigations
[25] = Low-dose C-peptide, SOC Metabolism and nutritional disorders
[26] = Low-dose C-peptide, SOC Musculoskeletal and connective tissue disorder
[27] = Low-dose C-peptide, SOC Nervous system disorders
[28] = Low-dose C-peptide, SOC Psychiatric disorders
[29] = Low-dose C-peptide, SOC Skin and subcutaneous tissue disorders
[30] = Low-dose C-peptide, SOC Surgical and Medical

CC(C)C[C@H](NC(=O)[C@H](C)NC(=O)[C@H](CC(C)C)NC(=O)[C@@H]1CCCN1C(=O)[C@H](CCC(N)=O)NC(=O)[C@H](CC(C)C)NC(=O)[C@H](CO)NC(=O)CNC(=O)[C@H](C)NC(=O)CNC(=O)[C@@H]1CCCN1C(=O)CNC(=O)CNC(=O)CNC(=O)[C@H](CC(C)C)NC(=O)[C@H](CCC(=O)O)NC(=O)[C@@H](NC(=O)[C@H](CCC(N)=O)NC(=O)CNC(=O)[C@@H](NC(=O)[C@H](CCC(N)=O)NC(=O)[C@H](CC(C)C)NC(=O)[C@H](CC(=O)O)NC(=O)[C@H](CCC(=O)O)NC(=O)[C@H](C)NC(=O)[C@@H](N)CCC(=O)O)C(C)C)C(C)C)C(=O)N[C@@H](CCC(=O)O)C(=O)NCC(=O)N[C@@H](CO)C(=O)N[C@@H](CC(C)C)C(=O)N[C@@H](CCC(N)=O)C(=O)O [C-peptide]
bioavailability of subcutaneously administered C-peptide [1]: approximately 80%
tolerability ([2]; 500-1,500 nmoL/24 h): well tolerated
Anemia, number of AEs [2, 3]: 1
Hemorrhage, number of AEs [2, 3]: 1
Macular edema, number of AEs [2, 4]: 1
Vitreous hemorrhage, number of AEs [2, 4]: 1
Abdominal pain, number of AEs [2, 5]: 3
Aptyalism, number of AEs [2, 5]: 1
Diarrhea, number of AEs [2, 5]: 1
Gastritis, number of AEs [2, 5]: 1
Nausea, number of AEs [2, 5]: 4
Tooth ache, number of AEs [2, 5]: 3
Chest pain, number of AEs [2, 6]: 2
Fatigue, number of AEs [2, 6]: 2
Feeling abnormal, number of AEs [2, 6]: 3
Injection site burning, number of AEs [2, 6]: 1 (1)
Injection site burning, number of AEs possibly related to study drug [2, 6]: 1 (1)
Gastroenteritis, number of AEs [2, 7]: 7
Otitis, number of AEs [2, 7]: 2
Pharyngitis, number of AEs [2, 7]: 2
Sepsis, number of AEs [2, 7]: 1
Sinusitis, number of AEs [2, 7]: 2
Skin infection, number of AEs [2, 7]: 1
Tonsilitis, number of AEs [2, 7]: 2
Tooth infection, number of AEs [2, 7]: 2
Upper respiratory tract infection, number of AEs [2, 7]: 1
Urinary tract infection, number of AEs [2, 7]: 1
Blister, number of AEs [2, 8]: 2
Dizziness, number of AEs [2, 8]: 1
Eye injury, number of AEs [2, 8]: 1
Food poisoning, number of AEs [2, 8]: 1
Joint sprain ankle, number of AEs [2, 8]: 1
Knee injury, number of AEs [2, 8]: 1
Rib fracture/injury, number of AEs [2, 8]: 2
Scar, number of AEs [2, 8]: 1
Tooth injury, number of AEs [2, 8]: 1
Cardiac murmur, number of AEs [2, 9]: 1
Hematuria, number of AEs [2, 9]: 1
Hepatic enzyme increase, number of AEs [2, 9]: 2
Hypercalcemia, number of AEs [2, 9]: 1
Leucopenia, number of AEs [2, 9]: 1
Lymph node enlargement, number of AEs [2, 9]: 1
Hyperglycemia, number of AEs [2, 10]: 1
Hypoglycemia, number of AEs [2, 10]: 5
Hypoglycemia, number of AEs possibly related to study drug [2, 10]: 1
Hypoglycemic coma, number of AEs [2, 10]: 2
Vitamin B12 deficiency, number of AEs [2, 10]: 1
Arthralgia, number of AEs [2, 11]: 3
Arthritis, number of AEs [2, 11]: 1
Arthropathy, number of AEs [2, 11]: 1
Back pain, number of AEs [2, 11]: 2
Epicondylitis, number of AEs [2, 11]: 1
Muscle spasm, number of AEs [2, 11]: 1
Muscular atrophy, number of AEs [2, 11]: 1
Myalgia, number of AEs [2, 11]: 1
Pain in extremity, number of AEs [2, 11]: 4
Pain in shoulder, number of AEs [2, 11]: 1
Tendinitis, number of AEs [2, 11]: 1
Tendosynovitis, number of AEs [2, 11]: 1
Torticollis, number of AEs [2, 11]: 1
Burning sensation, number of AEs [2, 12]: 1
Headache, number of AEs [2, 12]: 17
Hyperaesthesia, number of AEs [2, 12]: 1 (1)
Hyperaesthesia, number of AEs possibly related to study drug [2, 12]: 1 (1)
Migraine, number of AEs [2, 12]: 1
Paraesthesia, number of AEs [2, 12]: 2 (2)
Paraesthesia, number of AEs possibly related to study drug [2, 12]: 2 (2)
Restless legs syndrome, number of AEs [2, 12]: 1
Sciatica, number of AEs [2, 12]: 1
Sensory loss, number of AEs [2, 12]: 1
Vertigo, number of AEs [2, 12]: 1
Pregnancy, number of AEs ([2]; High-dose C-peptide, SOC Pregnancy, puerperium and perinatal conditions): 2
Menopausal disorder, number of AEs [2, 13]: 1
Menstration irregular, number of AEs [2, 13]: 1
Cough, number of AEs [2, 14]: 1
Epistaxis, number of AEs [2, 14]: 1
Skin induration, number of AEs [2, 15]: 1
Skin infection, number of AEs [2, 15]: 2
Sweating increased, number of AEs [2, 15]: 1
Limb operation, number of AEs [2, 16]: 1
Tooth extraction, number of AEs [2, 16]: 1
Arterial disorder, number of AEs [2, 17]: 1
Hypertension, number of AEs [2, 17]: 1
Hypotension, number of AEs [2, 17]: 1
Total treatment emergent AEs of any severity, number ([2]; High-dose C-peptide): 156
Total treatment emergent AEs possibly related to study drug, number ([2]; High-dose C-peptide): 5
Anemia, number of AEs ([2]; Low-dose C-peptide, SOC Blood and lymphatic system disorder): 1
Cardiac arrhythmia, number of AEs [2, 18]: 1
ST elevation (ECG), number of AEs [2, 18]: 1
Tachycardia (stress, number of AEs) [2, 18]: 1
Dacryocanaliculitis, number of AEs [2, 19]: 1
Vision decreased, number of AEs [2, 19]: 1
Celiac disease, number of AEs [2, 20]: 1
Diarrhea, number of AEs [2, 20]: 2
Flatulence, number of AEs [2, 20]: 1
Nausea, number of AEs [2, 20]: 1
Reflux gastritis, number of AEs [2, 20]: 2
Tooth ache, number of AEs [2, 20]: 2
Pyrexia, number of AEs ([2]; Low-dose C-peptide, SOC General disorders and administration site conditions): 3
Allergic urticaria, number of AEs [2, 21]: 1
Dermatitis allergic, number of AEs [2, 21]: 1
Rheumarthritis, number of AEs [2, 21]: 1
Season allergy, number of AEs [2, 21]: 1
Borrelia infection, number of AEs [2, 22]: 1
Bronchitis, number of AEs [2, 22]: 1
Candidiasis, number of AEs [2, 22]: 2
Gastroenteritis, number of AEs [2, 22]: 2
Herpes simplex, number of AEs [2, 22]: 1
Herpeszoster, number of AEs [2, 22]: 1
Influenza, number of AEs [2, 22]: 1
Nasopharyngitis, number of AEs [2, 22]: 31
Otitis, number of AEs [2, 22]: 1
Pharyngitis, number of AEs [2, 22]: 1
Sinusitis, number of AEs [2, 22]: 4
Skin infection, number of AEs [2, 22]: 5
Tonsilitis, number of AEs [2, 22]: 1
Upper respiratory tract infection, number of AEs [2, 22]: 3
Urinary tract infection, number of AEs [2, 22]: 3
Joint sprain ankle, number of AEs [2, 23]: 1
Rib fracture/injury, number of AEs [2, 23]: 1
Skin injury, number of AEs [2, 23]: 2
Elevated serum, number of AEs [2, 24]: 1
Hepatic enzyme increase, number of AEs [2, 24]: 2
Hepatic enzyme increase, number of AEs possibly related to study drug [2, 24]: 1
Hyperkalaemia, number of AEs [2, 24]: 1
Weight increased, number of AEs [2, 24]: 1
Hyperglycemia, number of AEs [2, 25]: 1 (1)
Hyperglycemia, number of AEs possibly related to study drug [2, 25]: 1 (1)
Hyperlipidemia, number of AEs [2, 25]: 1
Hypoglycemia, number of AEs [2, 25]: 2
Hypoglycemia, number of AEs possibly related to study drug [2, 25]: 1
Hypoglycemic coma, number of AEs [2, 25]: 2
Insulin sensitivity, number of AEs [2, 25]: 1 (1)
Insulin sensitivity, number of AEs possibly related to study drug [2, 25]: 1 (1)
Arthralgia, number of AEs [2, 26]: 3
Arthritis, number of AEs [2, 26]: 1
Arthropathy, number of AEs [2, 26]: 2
Epicondylitis, number of AEs [2, 26]: 1
Exostosis, number of AEs [2, 26]: 2
Muscle cramp, number of AEs [2, 26]: 1
Musculoskeletal chest, number of AEs [2, 26]: 1
Myalgia, number of AEs [2, 26]: 3
Pain in extremity, number of AEs [2, 26]: 3
Pain in extremity, number of AEs possibly related to study drug [2, 26]: 1
Pain in neck, number of AEs [2, 26]: 1
Synovial disorder, number of AEs [2, 26]: 1
Tendinous contracture, number of AEs [2, 26]: 1
Carpal tunnel syndrome, number of AEs [2, 27]: 1
Dizziness, number of AEs [2, 27]: 2
Headache, number of AEs [2, 27]: 35
Hyperthermeasthesia, number of AEs [2, 27]: 2 (2)
Hyperthermeasthesia, number of AEs possibly related to study drug [2, 27]: 2 (2)
Hypoaesthesia, number of AEs [2, 27]: 2
Multiple sclerosis, number of AEs [2, 27]: 1
Paraesthesia, number of AEs [2, 27]: 2
Paraesthesia, number of AEs possibly related to study drug [2, 27]: 1
Depression, number of AEs [2, 28]: 1
Panic disorder, number of AEs [2, 28]: 1
Stress disorder, number of AEs [2, 28]: 1
Asthma, number of AEs ([2]; Low-dose C-peptide, SOC Respiratory, thoracic, and mediastinal disorders): 1
Dry skin, number of AEs [2, 29]: 1
Fibroma, number of AEs [2, 29]: 1
Skin induration, number of AEs [2, 29]: 2
Eye operation, number of AEs [2, 30]: 1
Limb operation, number of AEs [2, 30]: 1
Hypertension, number of AEs ([2]; Low-dose C-peptide, SOC Vascular disorders): 1
Total treatment emergent AEs of any severity, number ([2]; Low-dose C-peptide): 173
Total treatment emergent AEs possibly related to study drug, number ([2]; Low-dose C-peptide): 8
local reactions ([2]; S.C. injection, 500-1,500 nmoL/24 h): No local reactions
SAEs ([2]; high-dose C-peptide (1,500 nmoL/24 h)): Two
AEs possibly/probably related to the study drug ([2]; high-dose C-peptide group): 5
patients without reported AEs ([2]; high-dose C-peptide group): 6 patients
patients with AEs ([2]; high-dose C-peptide group, 44 out of 52 patients): 85%
Total Adverse Events, Moderate ([2]; high-dose C-peptide group): Moderate = 43
Total Adverse Events, Severe ([2]; high-dose C-peptide group): Severe = 9
relationship of SAEs to the trial medication ([2]; high-dose C-peptide, investigators' assessment): unlikely/not related
patients without reported AEs ([2]; low-dose C-peptide group): 8 patients
patients with AEs ([2]; low-dose C-peptide group, 48 out of 56 patients): 86%
Total Adverse Events, Moderate ([2]; low-dose C-peptide group): Moderate = 51
Total Adverse Events, Severe ([2]; low-dose C-peptide group): Severe = 1
